Laboratory results taken from patent publication US20240415840A1, “BICYCLIC AMINES AS CDK2 INHIBITORS” (Incyte Corporation, priority 2023, published 2024).
Several values for one entry are separate records, joined by “and”; a condition that tells them apart may be missing. Identical values can stand only once. Like-named read-outs stand apart in the source and are kept apart here. Values belong to the molecule of their own block, whether it stands above or below them.

How the values were obtained:
[1] = biological target: T1, CDK2/Cyclin E1 (Homo sapiens, UniProt P24941); assay: CDK2/Cyclin E1 HTRF enzyme activity assay; type: biochemical; details: 1 mM ATP
T1 construct: enzyme activity assays utilize full-length human CDK2; GST (N); purchased Carna 04-165; host or cells: baculovirus expression system
Protocol: CDK2/Cyclin E1 enzyme activity assays utilize full-length human CDK2 co-expressed as N-terminal GST-tagged protein with FLAG-Cyclin E1 in a baculovirus expression system (Carna Product Number 04-165). Assays were conducted in white 384-well polystyrene plates in a final reaction volume of 8 μL. CDK2/Cyclin E1 (0.25 nM) was incubated with the compounds of the Examples (40 nL serially diluted in DMSO) in the presence of ATP (50 μM or 1 mM) and 50 nM ULight™-labeled eIF4E-binding protein 1 (THR37/46) peptide (PerkinElmer) in assay buffer (containing 50 mM HEPES pH 7.5, 1 mM EGTA, 10 mM MgCl2, 2 mM DTT, 0.05 mg/mL BSA, and 0.01% Tween 20) for 60 minutes at room temperature. The reactions were stopped by the addition of EDTA and Europium-labeled anti-phospho-4E-BP1 antibody (PerkinElmer), for a final concentration of 15 mM and 1.5 nM, respectively. HTRF signals were read after 1 hour at room temperature on a PHERAstar FS plate reader (BMG Labtech). Data was analyzed with Genedata Screener software using a three or four parameter dose response curve to determine IC50 for each compound.

[2] = In vitro permeability studies using Caco-2 cells; type: in vitro ADME; details: human, A-B
[3] = test system: Caco-2 cells; assay: In vitro permeability studies using Caco-2 cells; type: in vitro ADME
[4] = In vitro rat plasma unbound fraction; type: in vitro ADME
[5] = biological target: T2, P-gp (Homo sapiens, UniProt P08183); assay: Efflux transporter substrate assessment (Caco-2 studies), P-gp; type: in vitro ADME
T2 construct: in vitro permeability studies using Caco-2 cells; endogenous in cells; host or cells: Caco-2 cells

[6] = In vivo rat CNS protocol: brain, CSF and plasma concentrations after IV dosing
Protocol: The brain, CSF, and plasma concentrations of the compound of Example 1 (8-isopropoxy-7-(1H-pyrazol-4-yl)-N-(tetrahydro-2H-pyran-4-yl)-[1,2,4]triazolo[1,5-c]pyrimidin-2-amine) were determined in rats after IV dosing. The compound of Example 1 was formulated in 10% dimethylacetamide in acidified saline. Male rats (n=4) were given an IV bolus of the compound of Example 1 at 2.0 mg/kg, followed by an IV infusion at 1.2 mg/kg/h for 4 hours. Blood samples were collected at 2 hours and 4 hours in tubes containing EDTA as anticoagulant and centrifuged to obtain plasma. At 4 hours, brain and CSF samples were also collected. The CSF samples were mixed with blank rat plasma (1:1 v/v) to minimize adsorption of the compound of Example 1 to the collection device. Brain, CSF, and plasma samples were frozen and concentrations of the compound of Example 1 were determined by LC-MS/MS.

[7] = biological target: T3, BCRP (Homo sapiens, UniProt Q9UNQ0); assay: Efflux transporter substrate assessment (Caco-2 studies), BCRP; type: in vitro ADME
T3 construct: in vitro permeability studies using Caco-2 cells; endogenous in cells; host or cells: Caco-2 cells
T3 sequence (Q9UNQ0 1-655): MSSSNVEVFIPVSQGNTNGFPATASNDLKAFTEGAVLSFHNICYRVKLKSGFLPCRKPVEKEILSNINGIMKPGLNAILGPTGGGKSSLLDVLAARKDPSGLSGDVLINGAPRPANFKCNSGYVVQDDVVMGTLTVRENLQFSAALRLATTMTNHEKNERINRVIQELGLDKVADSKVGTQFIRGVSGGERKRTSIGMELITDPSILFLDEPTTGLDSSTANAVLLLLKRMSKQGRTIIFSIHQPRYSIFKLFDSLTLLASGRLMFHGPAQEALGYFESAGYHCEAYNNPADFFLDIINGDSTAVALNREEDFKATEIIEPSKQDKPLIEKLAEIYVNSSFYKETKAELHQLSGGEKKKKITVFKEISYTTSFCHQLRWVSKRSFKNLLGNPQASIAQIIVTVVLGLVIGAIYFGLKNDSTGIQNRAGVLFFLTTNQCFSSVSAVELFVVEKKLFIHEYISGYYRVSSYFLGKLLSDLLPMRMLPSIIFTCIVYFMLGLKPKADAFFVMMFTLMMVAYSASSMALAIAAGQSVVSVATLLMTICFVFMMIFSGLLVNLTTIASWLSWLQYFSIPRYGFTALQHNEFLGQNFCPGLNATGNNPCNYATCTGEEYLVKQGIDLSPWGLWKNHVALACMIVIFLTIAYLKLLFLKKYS

[8] = male rats (n=4), IV infusion, 4 h, mean ± SD

T2 sequence (P08183 whole entry): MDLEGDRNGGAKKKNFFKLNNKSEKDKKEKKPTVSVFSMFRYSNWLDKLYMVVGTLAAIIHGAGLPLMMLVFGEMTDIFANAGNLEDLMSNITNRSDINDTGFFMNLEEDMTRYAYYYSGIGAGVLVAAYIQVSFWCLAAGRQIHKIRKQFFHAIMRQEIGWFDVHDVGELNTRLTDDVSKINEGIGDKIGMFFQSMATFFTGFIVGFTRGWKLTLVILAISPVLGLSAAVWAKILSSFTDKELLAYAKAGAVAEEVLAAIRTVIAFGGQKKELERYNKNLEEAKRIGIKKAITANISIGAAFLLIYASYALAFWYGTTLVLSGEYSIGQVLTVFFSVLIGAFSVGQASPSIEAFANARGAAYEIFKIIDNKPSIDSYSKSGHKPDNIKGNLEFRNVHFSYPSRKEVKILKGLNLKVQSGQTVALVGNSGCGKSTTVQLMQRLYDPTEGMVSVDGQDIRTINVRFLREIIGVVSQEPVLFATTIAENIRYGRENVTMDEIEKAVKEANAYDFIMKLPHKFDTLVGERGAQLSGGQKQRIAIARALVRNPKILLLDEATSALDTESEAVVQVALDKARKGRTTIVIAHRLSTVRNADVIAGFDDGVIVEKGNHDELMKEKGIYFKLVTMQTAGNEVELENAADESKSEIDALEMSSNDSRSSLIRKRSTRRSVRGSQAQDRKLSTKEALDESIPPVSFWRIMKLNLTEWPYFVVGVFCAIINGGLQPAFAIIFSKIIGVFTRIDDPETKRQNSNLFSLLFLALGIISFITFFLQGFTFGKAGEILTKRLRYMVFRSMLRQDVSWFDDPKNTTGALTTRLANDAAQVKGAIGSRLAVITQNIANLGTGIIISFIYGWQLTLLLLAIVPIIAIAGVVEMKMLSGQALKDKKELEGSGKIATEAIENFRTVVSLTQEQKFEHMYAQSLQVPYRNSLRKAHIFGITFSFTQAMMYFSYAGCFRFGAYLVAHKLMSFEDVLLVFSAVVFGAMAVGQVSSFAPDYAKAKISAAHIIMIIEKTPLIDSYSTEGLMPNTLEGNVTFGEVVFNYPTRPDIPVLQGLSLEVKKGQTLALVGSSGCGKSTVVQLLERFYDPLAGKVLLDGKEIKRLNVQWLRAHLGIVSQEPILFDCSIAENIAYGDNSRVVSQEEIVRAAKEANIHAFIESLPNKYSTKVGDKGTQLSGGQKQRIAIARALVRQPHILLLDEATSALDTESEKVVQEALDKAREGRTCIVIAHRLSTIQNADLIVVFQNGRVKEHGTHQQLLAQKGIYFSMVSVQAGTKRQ

IC50 [1]: ≤ 0.01 µM
SMILES: CC(Oc1c(-c2cn[nH]c2)ccn2nc(NC3CCOCC3)nc12)C(F)(F)F (single isomer, unassigned) [Example 3]

IC50 [1]: ≤ 0.01 µM
SMILES: CC(Oc1c(-c2cn[nH]c2)ccn2nc(NC3CCOCC3)nc12)C(F)(F)F (single isomer, unassigned) [Example 4]

IC50 [1]: ≤ 0.01 µM
SMILES: CC(C)Oc1c(-c2cn[nH]c2)ccn2nc(NC3CCOCC3)nc12 [Example 2, 8-Isopropoxy-7-(1H-pyrazol-4-yl)-N-(tetrahydro-2H-pyran-4-yl)-[1,2,4]triazolo[1,5-a]pyridin-2-amine]

IC50 [1]: ≤ 0.01 µM
SMILES: CC(Oc1c(-c2cn[nH]c2)ccn2nc(NC3CCOCC3)nc12)C(F)F (single isomer, unassigned) [Example 5]

IC50 [1]: ≤ 0.01 µM
SMILES: CC(Oc1c(-c2cn[nH]c2)ccn2nc(NC3CCOCC3)nc12)C(F)F (single isomer, unassigned) [Example 6]

The next lines start with the molecule.

SMILES: CC(Oc1c(-c2cn[nH]c2)ncn2nc(NC3CCOCC3)nc12)C(F)(F)F (single isomer, unassigned) [Example 8]
IC50 [1]: ≤ 0.01 µM

SMILES: CC(Oc1c(-c2cn[nH]c2)ncn2nc(NC3CCOCC3)nc12)C(F)(F)F (single isomer, unassigned) [Example 7]
IC50 [1]: ≤ 0.01 µM

SMILES: CC(Oc1c(-c2cn[nH]c2)ncn2nc(NC3CCOCC3)nc12)C(F)F (single isomer, unassigned) [Example 9]
IC50 [1]: ≤ 0.01 µM

SMILES: CC(Oc1c(-c2cn[nH]c2)ncn2nc(NC3CCOCC3)nc12)C(F)F (single isomer, unassigned) [Example 10]
IC50 [1]: ≤ 0.01 µM

SMILES: CC(C)Oc1c(-c2cn[nH]c2)ncn2nc(NC3CCOCC3)nc12 [Example 1, 8-Isopropoxy-7-(1H-pyrazol-4-yl)-N-(tetrahydro-2H-pyran-4-yl)-[1,2,4]triazolo[1,5-c]pyrimidin-2-amine]
Papp A→B [2]: 16 ×10⁻⁶ cm/s | Caco-2 permeability (in words) [3]: highly permeable | fraction unbound [4]: 0.57 | substrate of P-gp efflux transporter [5]: not a substrate | IC50 [1]: ≤ 0.01 µM | Brain/Plasma (%) ([6]; 4 h, individual rats 1001-1004): 60% and 89% and 73% | CSF/unbound plasma concentration (%) ([6]; 4 h, individual rats 1001-1004): 37% and 42% and 38% | Plasma free (unbound) concentration, 4 h ([6]; calculated using rat plasma in vitro unbound fraction, 4 h, individual rats 1001-1004): 1.45 µM and 1.22 µM and 1.70 µM | Plasma total concentration, 4 h, mean ([6]; male rats (n=4), IV bolus 2.0 mg/kg then IV infusion 1.2 mg/kg/h for 4 h, 4 h, mean ± SD): 2.41 ± 0.46 µM | Brain concentration, 4 h, mean [6, 8]: 1740 ± 370 nM | CSF concentration, 4 h, mean [6, 8]: 0.579 ± 0.062 µM | Plasma total concentration, 2 h ([6]; male rats, IV bolus 2.0 mg/kg then IV infusion 1.2 mg/kg/h for 4 h, 2 h, individual rats 1001-1004): 1.44 µM and 1.41 µM and 1.71 µM | Plasma total concentration, 4 h ([6]; male rats, IV bolus 2.0 mg/kg then IV infusion 1.2 mg/kg/h for 4 h, 4 h, individual rats 1001-1004): 2.55 µM and 2.14 µM and 2.98 µM | concentration at 4 h ([6]; male rats, IV infusion, 4 h, individual rats 1001-1004, read-out: Brain concentration, 4 h): 1520 nM and 1910 nM and 2170 nM | concentration at 4 h ([6]; male rats, IV infusion, 4 h, individual rats 1001-1004, read-out: CSF concentration, 4 h): 541 nM and 517 nM and 653 nM | Kp at 4 h ([6]; male, rat, CSF / unbound plasma, intravenous, 4 h, individual rats 1001-1004, read-out: CSF/unbound plasma concentration (%)): 0.54 | Kp at 4 h ([6]; male, rat, CSF / unbound plasma, intravenous, 4 h, mean, read-out: CSF/unbound plasma concentration (%), mean): 0.43 | concentration at 4 h ([6]; male, rat, CSF, iv, male rats (n=4), IV infusion, 4 h, mean ± SD, read-out: CSF concentration, 4 h, mean): 579 ± 62 nM | concentration at 4 h ([6]; male, rat, CSF, iv, male rats, IV infusion, 4 h, individual rats 1001-1004, read-out: CSF concentration, 4 h): 604 nM | Kp at 4 h ([6]; male, rat, brain / plasma, intravenous, 4 h, individual rats 1001-1004, read-out: Brain/Plasma (%)): 0.7 | Kp at 4 h ([6]; male, rat, brain / plasma, intravenous, 4 h, mean, read-out: Brain/Plasma (%), mean): 0.73 | concentration at 4 h ([6]; male, rat, brain, iv, male rats (n=4), IV infusion, 4 h, mean ± SD, read-out: Brain concentration, 4 h, mean): 1740 ± 370 nM | concentration at 4 h ([6]; male, rat, brain, iv, male rats, IV infusion, 4 h, individual rats 1001-1004, read-out: Brain concentration, 4 h): 1360 nM | concentration at 4 h ([6]; male, rat, plasma (unbound), intravenous, calculated using rat plasma in vitro unbound fraction, 4 h, individual rats 1001-1004, read-out: Plasma free (unbound) concentration, 4 h): 1110 nM | concentration at 4 h ([6]; male, rat, plasma (unbound), intravenous, calculated using rat plasma in vitro unbound fraction, 4 h, mean ± SD, read-out: Plasma free (unbound) concentration, 4 h, mean): 1370 ± 260 nM | concentration at 2 h ([6]; male, rat, plasma, intravenous, male rats (n=4), IV bolus 2.0 mg/kg then IV infusion 1.2 mg/kg/h for 4 h, 2 h, mean ± SD, read-out: Plasma total concentration, 2 h, mean): 1460 ± 180 nM | concentration at 4 h ([6]; male, rat, plasma, intravenous, male rats (n=4), IV bolus 2.0 mg/kg then IV infusion 1.2 mg/kg/h for 4 h, 4 h, mean ± SD, read-out: Plasma total concentration, 4 h, mean): 2410 ± 460 nM | concentration at 2 h ([6]; male, rat, plasma, intravenous, male rats, IV bolus 2.0 mg/kg then IV infusion 1.2 mg/kg/h for 4 h, 2 h, individual rats 1001-1004, read-out: Plasma total concentration, 2 h): 1270 nM | concentration at 4 h ([6]; male, rat, plasma, intravenous, male rats, IV bolus 2.0 mg/kg then IV infusion 1.2 mg/kg/h for 4 h, 4 h, individual rats 1001-1004, read-out: Plasma total concentration, 4 h): 1950 nM | penetration across the rat blood-brain barrier (in words) ([6]; rat, IV infusion): readily penetrates across the rat blood-brain barrier | substrate of BCRP efflux transporter [7]: not a substrate
